Measurements from a melting point compilation (Tetko et al.; mined from patent text by program, amines drawn as free bases though some values may be those of a salt).

| Compound | melting point [°C] |
| --- | --- |
| Cc1ccc(Oc2ccncc2[N+](=O)[O-])cn1 | 87 to 90 |
| Cc1nc(C(=O)O)c(OCc2ccccc2)c(=O)n1C | 180 to 181 |
| CCCCCCCCCCCCCCOc1cccc(CBr)c1 | 34 to 35 |
| CCN1c2ncc(CCc3ccc(C(=O)OC)cc3)cc2C(=O)N(C)c2cccnc21 | 172 to 173 |
| Cc1cc(Br)cc(Br)c1NC(=N)Nc1c(C)cc([N+](=O)[O-])cc1Br | 193 to 195 |
| CN(C)C(=N)c1nn(-c2c(Cl)cc(C(F)(F)F)cc2Cl)c(N)c1S(=O)C(F)(F)F (configuration not stated) | 123 to 126 |
| CC(C)(C)C(=O)Nc1nn(-c2ccc(F)cc2F)c2c1C1CCC2C1 (configuration not stated) | 136 to 138 |
| COCc1cc(-c2csc(N)n2)on1 | 137 to 138 |
| CC(=C(c1ccccc1)c1ccccc1)P(c1ccccc1)c1ccccc1 | 128 to 130 |
| Nc1cc(=O)n2cc(Cl)c(C(c3c(F)ccc(F)c3F)S(=O)(=O)CCC(F)(F)F)cc2n1 (configuration not stated) | 247 |
| CCC(NC(=N)NC#N)c1ccccc1 (configuration not stated) | 121 to 123 |
| COC(=O)C1(c2cc(C#N)ccc2O)CCCC1 | 113 to 118 |
| COC(=O)CCc1cnoc1-c1cc(Cl)c(Cl)s1 | 49 to 50 |
| O=C(CCl)N1CCC(Cc2ccc(Cl)cc2)CC1 | 70 |
| COc1ccc2c(c1)COc1c-2ccc2cc(OC)ccc12 | 175 to 178 |
| N#Cc1nn(-c2c(Cl)cc(C(F)(F)F)cc2Cl)c(N2CCOCC2)c1S(=O)(=O)C(F)(F)F | 167 to 169 |
| COC(=O)C1CN2c3c(cc(F)c(OS(C)(=O)=O)c3CCN2C)C1=O (configuration not stated) | 247 to 250 |
| CC(C)[C@H](COc1ccccc1)Nc1nc(Cl)nc2c1ncn2[C@@H]1O[C@H](CO)[C@@H](O)[C@H]1O | 95 to 100 |
| COc1cccc2c1OCN(CCc1ccc(Cl)cc1)C2 | 87 to 88 |
| Cc1oc(-c2ccccc2)nc1COc1ccc2c(c1)CCC(CC1SC(=O)NC1=O)C2 (configuration not stated) | 194 to 195 |
| O=C(Nc1ccccc1)Nc1ccc(-c2ccc(C(=O)N3CCN4CCC3CC4)o2)cc1 | 125 to 130 |

| Compound | melting point [°C] |
| --- | --- |
| COC(=O)c1ccc(NC(=O)OCc2ccccc2)c(Cl)c1 | 108 |
| COc1ccc(C(=O)NC(=O)Nc2cc3c(cc2F)/C(=C/c2[nH]c(C)c(CCC(=O)O)c2C)C(=O)N3)c(F)c1 | > 300 |
| CC1(O)CC(=O)OC(CCc2ccc(OCc3ccccc3)cc2)C1Br (configuration not stated) | 155 to 160 |
| COc1cccc(C2(O)c3cccc(O)c3C(=O)c3c(O)cccc32)c1 | 187 |
| CC(F)C(C)(N)C(N)=O (configuration not stated) | 81 |
| CN(C)C12CC3CC(CC(O)(C3)C1)C2 | 60 to 64 |
| Nc1nc(N)c(CCNc2ccc(C(=O)N[C@@H](CCC(=O)O)C(=O)O)cc2)c(=O)[nH]1 | 180 to 185 |
| Cc1nc(=O)[nH]c2c(-c3ccccc3)[nH]c(C)c12 | 290 to 294 |
| CCCCC1=NC2(CCCC2)C(=O)N1Cc1ccc(-c2ccccc2S(=O)(=O)Nc2onc(C)c2C)c(CCCC)c1 | 58 to 61 |
| CN1C(=O)[C@@](NC(=O)Nc2cccc(CNc3nnn[nH]3)c2)(C2CCCCC2)N=Cc2ccccc21 | 175 to 178 |
| COc1ccc(COC(=O)c2ccccc2)cc1OCc1ccccc1 | 75.7 |
| Nc1c(Cl)c(F)nc(F)c1Cl | 110 |
| O=C(Nc1cc(C(F)(F)F)cc(C(F)(F)F)c1)[C@H]1CC=CC[C@H]1C(=O)O (relative stereo) | 166 to 167 |
| CC(CCCC(O)(C(F)(F)F)C(F)(F)F)C1CCC2C3C=CC4=CC(=O)C5OC5C4(C)C3CCC12C (configuration not stated) | 181 to 184 |
| Cn1cnc(COc2ccc(-c3cc(-c4c[nH]nc4-c4ccccn4)ccn3)cc2)c1 | 104 |
| CNc1ccnc(Cl)c1N | 166 to 168 |
| CSc1nc2ccnn2c(O)c1C#N | > 250 |
| CCCCCCCCS(=O)(=O)Nc1cc(C(F)(F)F)ccc1Oc1ccccc1C(=O)O | 167 to 168 |
| Cc1cccc(-c2n[nH]cc2-c2ccc(F)c(-c3c[nH]c(C(O)CO)n3)c2)n1 (configuration not stated) | 125 to 127 |
| C[C@H](NC(=O)OC(C)(C)C)[C@@H]1CCN(c2nc3c(cc2F)c(=O)[nH]c(=O)n3C2CC2)C1 | 249 to 251 |
| CCN(CC)CCOc1cccc2c1c1cc(F)ccc1n2Cc1ccccc1 | 68 to 69 |

| Compound | melting point [°C] |
| --- | --- |
| CC(=O)NCCCc1ccc(OC2CCc3cc(Cl)ccc32)cc1 (configuration not stated) | 111 to 112 |
| O=C(CC12CC3CC(CC(C3)C1)C2)N1CCc2sccc2C1 | 121 to 125 |
| ClCSc1ccccc1Br | 28 to 30 |
| Cc1c(C)c2c(c(C)c1O)CC(C)C(C(=S)Nc1ccccc1)O2 (configuration not stated) | 175 |
| OCc1c(C(F)(F)F)nn(-c2ccccc2)c1OC(F)F | 57 to 59 |
| COC(=O)Nc1nc(-c2ccccc2)c(-c2nc3ccccc3c(=O)n2-c2ccccc2C)s1 | > 275 |
| CC(C)(C)OC(=O)C(C1NC(C(=O)OCc2ccccc2)C2(CCCCC2)S1)N1C(=O)c2ccccc2C1=O (configuration not stated) | 165 to 166 |
| O=c1cc(C(F)(F)F)[nH]n1-c1ccccc1 | 193 |
| Cc1[nH]cc2c(=O)n(-c3ccc(Cl)cc3)nc-2c1-c1ccc(-c2cccnc2)cc1 | 308 to 309 |
| Cc1cccc(Nn2c(-c3ccccc3)c(C(C)C)[nH]c2=S)c1 | 220 to 222 |
| CCOC(=O)Cc1c2ccccc2n2c(-c3cccs3)nccc12 | 94 to 95 |
| C#Cc1c(-c2ccc(F)cc2)cc(C(c2ccccc2)c2ccccc2)nc1C(C)C | 106 to 108 |
| COC(=O)c1cc(OC)c(OC)c(OC)c1-c1c(C(=O)OC)cc2c(c1OC)OCO2 | 109 to 110 |
| Oc1ncnc2c1c(Nc1ccccc1)nn2Cc1ccccc1 | 246 to 247 |
| CP(C)(=O)CN1CCN(c2n[nH]c3ccccc23)CC1 | 223 to 225 |
| COc1cc(Nc2nccc(-c3cccc(NC(=O)c4cc(C)on4)c3)n2)cc(OC)c1OC | 173 to 175 |
| COCCOCc1c(C=O)sc2c(=O)c(C(=O)NCc3ccc(Cl)cc3)cn(C)c12 | 152 to 153 |
| Cc1cccc(NC(=O)NC(C(=O)N(CC(=O)OC(C)(C)C)c2ccccc2)c2ccccc2)c1 (racemic) | 178 |
| CCOC(=O)C(C=O)Cc1cnc(C)c(C)c1 (configuration not stated) | 148 to 149 |

Further lines, results first:

| melting point [°C] | Compound |
| --- | --- |
| 145 | CS(=O)(=O)OCCn1c(=NC(=O)C(F)(F)F)sc2cc(OC(F)(F)F)ccc21 |
| 152 to 155 | Cc1csc(-c2nc3c4ccccc4ccn3c2N)c1 |
| 137 to 139 | N#Cc1ccc(CC2CCN(C(=O)c3ccc(Cl)cc3)CC2)cc1 |
| 179 to 180 | COc1ccc(CS(=O)(=O)c2cc3ccc(OC)cc3oc2=O)cc1 |
| 194 to 195 | CN1C(=O)CC(c2c[nH]c3ccc(Br)cc23)C1=O (configuration not stated) |
| 169 to 171 | CCOC(=O)C1=C(COCc2cccnc2)NC(COCc2cccnc2)=C(C(=O)OCC)C1c1cccc([N+](=O)[O-])c1 |
| 174 to 175 | CNC(=O)Cc1cc(=O)oc2cc(OCc3cccc(Cl)c3)ccc12 |
| 178 to 179 | COc1c(F)c(F)cc2c(=O)c(C(=O)O)cn(C3COC3)c12 |
| 106 to 109 | Cc1ccccc1C(Oc1cc(OCc2ccc3c(c2)OCO3)ccc1C#N)c1nnn[nH]1 (racemic) |
| 164 to 165 | CN1CCN(S(=O)(=O)c2ccc([N+](=O)[O-])cc2[N+](=O)[O-])CC1 |
| 124 to 127 | CC(COc1ccccc1)NCC(O)COc1cccc(O)c1 (configuration not stated) |
| 104 to 105 | CCOCc1cc2ccccc2oc1=Nc1ccc(CC)cc1 |
| 153 to 155 | CC1(C#N)CCc2cc(O)c(C(C)(C)C)cc2O1 (configuration not stated) |
| 140 to 142 | CC(C)Oc1cc(COc2cc(CCC(=O)O)n(-c3ccccc3)n2)cc(COc2ncc(C(F)(F)F)cc2Cl)c1 |
| 104 to 110 | CCCc1c(OCCCc2ccc(OC)c(OC)c2)ccc(C(=O)O)c1O |
| 188 to 189 | CC(C)(C)C(NC(=O)c1ccc(Cl)cc1)NC(=NC#N)NCc1cccnc1 (configuration not stated) |
| 143 to 144 | CCCc1c(OCCCOc2ccc(C(=O)CCC(=O)O)c(Cl)c2)ccc(C(C)=O)c1O |
| 299 to 300 | Cc1nc2ccccc2n1-c1ccc(C(=O)O)cc1 |

| melting point [°C] | Compound |
| --- | --- |
| 115 to 117 | CCCc1nn(C)c2c(=O)[nH]c(-c3cc(CCCN)ccc3OCC)nc12 |
| 76 | CCCCCCCCCCCCCCCCCCCC1CN(C(=O)c2cc(OC)c(OC)c(OC)c2)CCN1C(=O)c1cc(OC)c(OC)c(OC)c1 (configuration not stated) |
| 135 to 139 | O=C(O)CCCCc1c([N+](=O)[O-])cc(O)c(O)c1[N+](=O)[O-] |
| 192 to 194 | O=c1[nH]ccn1-c1ccc(F)cc1F |
| 142 to 143 | COc1cc(-c2nc3sccn3c2-c2ccnc(N[C@@H]3CCCN(S(=O)(=O)c4ccc(Cl)cc4)C3)n2)ccc1F |
| 148 to 149 | COc1ccc(C(C)(O)c2cccc(OCc3nc(-c4ccccc4)oc3C)c2)c(OCC(=O)O)c1 (configuration not stated) |
| 104 to 105 | CC(C)(C)N(CCOCC#Cc1cncs1)C(=O)C(=O)O |
| 55 to 56 | COc1ccc(COCC(O)Cc2cccnc2)cc1 (configuration not stated) |
| 110 to 112 | Cc1ccc(-c2nn(C(C)(C)C(=O)N(C)C)cc2C)c(C)c1 |
| 117 to 119 | CCOC1C=CC(=O)N1S(=O)(=O)c1ccccc1 (configuration not stated) |
| 86 to 87 | COC(=O)c1ccc(-c2cccc(C(=O)OC)c2)cc1 |
| 122 to 136 | C[C@H](NC(=O)Cc1ccccc1)C(=O)N[C@@H]1C(=O)Nc2ccccc2O[C@@H]1c1ccccc1 |
| 234 to 236 | CC(C)n1nc(-c2sc(NC(=O)C3CCCCC3)nc2-c2ccccc2)ccc1=O |
| 200 to 202 | O=C1CCC(N2Cc3c(OCc4ccc(CN5CCC(c6cccc(F)c6)CC5)cc4)cccc3C2=O)C(=O)N1 (configuration not stated) |
| > 250 | CC(C)n1nc(-c2nc(C#Cc3cncn3C)c(N)nc2-c2ccccc2)ccc1=O |
| 270 to 272 | CNC(=NC#N)NCc1c(C)cc(C)c(CNC(=NC#N)NC)c1C |
| 95 to 97 | CCN(CC)C(=O)n1cc(C=O)c(S(=O)(=O)c2cccc(Cl)c2C)n1 |
| 166 to 167 | COCOc1cc(Br)ccc1-c1cc(-c2cccc([N+](=O)[O-])c2)c(C#N)c(NC(=O)c2cccs2)n1 |
